From patent publication US7425631B2 (Amgen Inc., priority 2003, dated 2008)

Target: T1, human B1 receptor (Homo sapiens, UniProt P46663)
T1 construct: expressed in transfected cells
T1 sequence (P46663 1-353): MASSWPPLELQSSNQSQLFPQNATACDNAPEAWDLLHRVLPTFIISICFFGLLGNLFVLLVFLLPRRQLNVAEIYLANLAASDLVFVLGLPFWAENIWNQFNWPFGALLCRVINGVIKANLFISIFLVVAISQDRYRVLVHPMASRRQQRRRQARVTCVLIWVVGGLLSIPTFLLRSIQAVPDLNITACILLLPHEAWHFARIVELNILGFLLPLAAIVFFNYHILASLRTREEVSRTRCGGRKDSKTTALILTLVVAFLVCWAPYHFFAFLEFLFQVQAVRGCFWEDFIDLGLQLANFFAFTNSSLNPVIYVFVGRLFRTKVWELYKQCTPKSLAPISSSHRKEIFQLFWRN
Assay: In vitro assay of human B1 receptor function using calcium flux (aequorin luminescence)
Format: cell-based
Conditions: CHO D-/hB1/Aequorin cells, agonist 20 nM des-Arg10-Kallidin (EC80); read-out: binding IC50's to hB1 receptor function
Procedure: Activation of the Gq linked B1 receptor results in an increase in intracellular calcium. […] Aequorin is a 21-kDa photoprotein that forms a bioluminescent complex when linked to the chromophore cofactor coelenterazine.
Following coelenterazine incubation, an automated flash-luminometer platform was used to dispense the B1 antagonist compounds (dissolved in DMSO and diluted with buffer to the desired concentration (final DMSO concentration <1% DMSO)) to the cell plate, a CCD camera situated underneath the cell plate took 12 images of the cell plate at 5 second intervals to determine if there was any agonist activity with the compounds. The hB1 agonist, des-Arg10-Kallidin, was added to the cell plate and another 12 images were recorded to determine the IC50 of the antagonist(s).

Q: For `CC(C)NCc1ccc2c(c1)CCC[C@H]2NC(=O)C[C@@H](NS(=O)(=O)c1ccc(Cl)c(Cl)c1)c1ccccc1`, which IC50 is on record?
A: Its IC50 is less than 10 nM.

Q: `O=C(CC(NS(=O)(=O)c1cccc(C(F)(F)F)c1)c1ccc(F)cc1)N[C@@H]1CCCc2cc(CN3CCCCC3)ccc21` (stereo in doubt) [ba, (3S)-3-(4-fluorophenyl)-N-((1R)-6-(1-piperidinylmethyl)-1,2,3,4-tetrahydro-1-naphthalenyl)-3-(((3-(trifluoromethyl)phenyl)sulfonyl)amino)propanamide] was tested. Which IC50 did it give?
A: The IC50 was less than 10 nM.

Q: With `O=C(C[C@@H](NS(=O)(=O)c1cccc(C(F)(F)F)c1)c1ccccc1)N[C@@H]1CCOc2cc(CN3CCCCC3)ccc21` [Example 166, (3R)-3-Phenyl-N-((4R)-7-(1-piperidinylmethyl)-3,4-dihydro-2H-chromen-4-yl)-3-(((3-(trifluoromethyl)phenyl)sulfonyl)amino)propanamide] as the molecule, how does the IC50 read?
A: Its IC50 is less than 10 nM.

Q: With `O=C(C[C@@H](NS(=O)(=O)c1ccc(Cl)c(Cl)c1)c1ccccc1)N[C@@H]1CCOc2cc(CN3CCCCC3)ccc21` [Example 168, (3R)-3-(((3,4-Dichlorophenyl)sulfonyl)amino)-3-phenyl-N-((4R)-7-(1-piperidinylmethyl)-3,4-dihydro-2H-chromen-4-yl)propanamide] as the molecule, how does the IC50 read?
A: Its IC50 is less than 10 nM.

Q: With `O=C(C[C@@H](NS(=O)(=O)c1ccc(Cl)c(Cl)c1)c1ccccc1)N[C@@H]1CCOc2cc(CN3CCOCC3)ccc21` [Example 169, (3R)-3-(((3,4-Dichlorophenyl)sulfonyl)amino)-N-((4R)-7-(4-morpholinylmethyl)-3,4-dihydro-2H-chromen-4-yl)-3-phenylpropanamide] as the molecule, how does the IC50 read?
A: Its IC50 is less than 10 nM.

Q: `CC(C)(C)NCc1ccc2c(c1)OCC[C@H]2NC(=O)C[C@@H](NS(=O)(=O)c1cccc(C(F)(F)F)c1)c1ccccc1` [Example 170, (3R)-N-((4R)-7-(((1,1-Dimethylethyl)amino)methyl)-3,4-dihydro-2H-chromen-4-yl)-3-phenyl-3-(((3-(trifluoromethyl)phenyl)sulfonyl)amino)propanamide] was tested. Which IC50 did it give?
A: Its IC50 is less than 10 nM.

Q: `CN1c2cc(CN3CCCCC3)ccc2[C@@H](NC(=O)C[C@@H](NS(=O)(=O)c2ccc3ccccc3c2)c2ccccc2)CS1(=O)=O` [Example 175, (3R)-N-((4R)-1-Methyl-2,2-dioxido-7-(1-piperidinylmethyl)-3,4-dihydro-1H-2,1-benzothiazin-4-yl)-3-((2-naphthalenylsulfonyl)amino)-3-phenylpropanamide] was tested. Which IC50 did it give?
A: The IC50 was less than 10 nM.

Q: Which IC50 does the source give for `O=C(C[C@@H](NS(=O)(=O)c1ccc2ccccc2c1)c1ccccc1)N[C@H]1CCc2cc(CN3CCCCC3)ccc21` [Example 176, (3R)-3-((2-Naphthalenylsulfonyl)amino)-3-phenyl-N-((1S)-5-(1-piperidinylmethyl)-2,3-dihydro-1H-inden-1-yl)propanamide] here?
A: The IC50 was less than 10 nM.

Q: `O=C(C[C@@H](NS(=O)(=O)c1cccc(C(F)(F)F)c1)c1ccccc1)N[C@@H]1CCOc2cc(CN3CCC(F)CC3)ccc21` [Example 185, (3R)-N-((4R)-7-((4-Fluoro-1-piperidinyl)methyl)-3,4-dihydro-2H-chromen-4-yl)-3-phenyl-3-(((3-(trifluoromethyl)phenyl)sulfonyl)amino)propanamide] was tested. Which IC50 did it give?
A: Its IC50 is less than 10 nM.

Q: `O=C(C[C@@H](NS(=O)(=O)c1cccc(C(F)(F)F)c1)c1ccccc1)N[C@@H]1CCOc2cc(CN3CCC(F)(F)CC3)ccc21` [Example 198, (3R)-N-((4R)-7-((4,4-Difluoro-1-piperidinyl)methyl)-3,4-dihydro-2H-chromen-4-yl)-3-phenyl-3-(((3-(trifluoromethyl)phenyl)sulfonyl)amino)propanamide] was tested. Which IC50 did it give?
A: The IC50 was less than 10 nM.

Q: How did the IC50 turn out when `C=C(CN1CCCCC1)c1ccc2c(c1)CCC[C@H]2NC(=O)C[C@@H](NS(=O)(=O)c1ccc(Cl)c(Cl)c1)c1ccccc1` [Example 218d, (3R)-3-(((3,4-dichlorophenyl)sulfonyl)amino)-3-phenyl-N-((1R)-6-(1-(1-piperidinylmethyl)ethenyl)-1,2,3,4-tetrahydro-1-naphthalenyl)propanamide] was run?
A: The IC50 was less than 10 nM.

Q: How did the IC50 turn out when `C=C(CN1CC[C@H](O)C1)c1ccc2c(c1)CCC[C@H]2NC(=O)C[C@@H](NS(=O)(=O)c1cccc(C(F)(F)F)c1)c1ccccc1` [Example 218j, (3R)-N-((1R)-6-(1-(((3S)-3-hydroxy-1-pyrrolidinyl)methyl)ethenyl)-1,2,3,4-tetrahydro-1-naphthalenyl)-3-phenyl-3-(((3-(trifluoromethyl)phenyl)sulfonyl)amino)propanamide] was run?
A: The IC50 was less than 10 nM.

Q: For `C=C(CN1CCCC1)c1ccc2c(c1)CCC[C@H]2NC(=O)C[C@@H](NS(=O)(=O)c1cccc(C(F)(F)F)c1)c1ccccc1` [Example 218q, (3R)-3-phenyl-N-((1R)-6-(1-(1-pyrrolidinylmethyl)ethenyl)-1,2,3,4-tetrahydro-1-naphthalenyl)-3-(((3-(trifluoromethyl)phenyl)sulfonyl)amino)propanamide], which IC50 is on record?
A: Its IC50 is less than 10 nM.

Q: How did the IC50 turn out when `C=C(CN1CCCCC1)c1ccc2c(c1)CCC[C@H]2NC(=O)C[C@@H](NS(=O)(=O)c1cccc(C(F)(F)F)c1)c1ccccc1` [Example 218r, (3R)-3-phenyl-N-((1R)-6-(1-(1-piperidinylmethyl)ethenyl)-1,2,3,4-tetrahydro-1-naphthalenyl)-3-(((3-(trifluoromethyl)phenyl)sulfonyl)amino)propanamide] was run?
A: Its IC50 is less than 10 nM.

Q: Which IC50 does the source give for `CC(C)CNC(C)c1ccc2c(c1)CCC[C@H]2NC(=O)C[C@@H](NS(=O)(=O)c1cccc(C(F)(F)F)c1)c1ccccc1` (stereo partly drawn) [Example 220a, (3R)-3-((hydroxy(oxido)(3-(trifluoromethyl)phenyl)-lambda-4—sulfanyl)amino)-N-((1R)-6-((1R)-1-((2-methylpropyl)amino)ethyl)-1,2,3,4-tetrahydro-1-naphthalenyl)-3-phenylpropanamide] here?
A: Its IC50 is less than 10 nM.

Q: For `CC(C)CNC(C)c1ccc2c(c1)CCC[C@H]2NC(=O)C[C@@H](NS(=O)(=O)c1ccc2ccccc2c1)c1ccccc1` (some centres unmarked) [Example 220g], which IC50 is on record?
A: The IC50 was less than 10 nM.

Q: `CC(C)(C)NCc1ccc2c(c1)CCC[C@H]2NC(=O)C[C@H](NS(=O)(=O)c1cccc(C(F)(F)F)c1)c1ccc(F)cc1` [a, (3S)-N-((1R)-6-(((1,1-dimethylethyl)amino)-methyl)-1,2,3,4-tetrahydro-1-naphthalenyl)-3-(4-fluorophenyl)-3-(((3-(trifluoromethyl)phenyl)-sulfonyl)amino)propanamide] was tested. Which IC50 did it give?
A: The IC50 was less than 10 nM.

Q: `CN([C@H](CC(=O)N[C@@H]1CCCc2cc(CN3CCCCC3)ccc21)c1ccccc1)S(=O)(=O)c1cccc(C(F)(F)F)c1` [aa, (3R)-3-(methyl((3-(trifluoromethyl)phenyl)sulfonyl)amino)-3-phenyl-N-((1R)-6-(1-piperidinylmethyl)-1,2,3,4-tetrahydro-1-naphthalenyl)propanamide] was tested. Which IC50 did it give?
A: The IC50 was less than 10 nM.

Q: How did the IC50 turn out when `Cc1c(S(=O)(=O)N[C@H](CC(=O)NC2CCCc3cc(CNC(C)(C)C)ccc32)c2ccccc2)sc2ccc(Cl)cc12` (stereo partly drawn) [ad, (3R)-3-(((5-chloro-3-methyl-1-benzothien-2-yl)sulfonyl)amino)-N-(6-(((1,1-dimethylethyl)amino)methyl)-1,2,3,4-tetrahydro-1-naphthalenyl)-3-phenylpropanamide] was run?
A: The IC50 was less than 10 nM.

Q: How did the IC50 turn out when `Cc1c(S(=O)(=O)N[C@H](CC(=O)NC2CCCc3cc(CN4CCCCC4)ccc32)c2ccccc2)sc2ccc(Cl)cc12` (stereo partly drawn) [ae, (3R)-3-(((5-chloro-3-methyl-1-benzothien-2-yl)sulfonyl)amino)-3-phenyl-N-(6-(1-piperidinylmethyl)-1,2,3,4-tetrahydro-1-naphthalenyl)propanamide] was run?
A: The IC50 was less than 10 nM.
